Key:
Type in all cases: cell-based
[1] = tested on: HEK293 (human normal embryonic kidney); assay: Cell proliferation inhibition, Cell Titer-Glo, HEK293; details: cell proliferation assay, HEK293 cells, read-out: HEK 293 IC50
Description: (§1) IGF1R and other tyrosine kinase inhibitors can inhibit the proliferation of certain cancer cell lines indicating their possible therapeutic utility for treating the corresponding cancer types. Cancer cell lines of interest and control normal lines, including CHO, HEK293, BA/F3, MM1, H929, COLO205, PC3, DU145, MCF7, Panc1, ACHN, Hep G2, H460, K562, TT, U87-G, CAOV-3, SK-MEL5, Karpas 299, are plated in white, clear-bottomed 384-well cell culture plates at 2500-5000 cells per well and supplied with dilutions of tested compounds After a desired period of time (typically 3 days), the number of viable cells is quantitated by using Cell Titer-Glo Luminescent Cell Viability Assay (Promega), a cell proliferation assay system based on detection of total amount of ATP present as a measure of cell metabolic activity. The plated cells are mixed with the Cell Titer-Glo developing reagent and counted in a luminescence multiwell plate reader according to the standard manufacturer's protocol to generate IC50 curves for cell proliferation inhibition.
(§2) IGF1R and other tyrosine kinase inhibitors can inhibit the proliferation of certain cancer cell lines indicating their possible therapeutic utility for treating the corresponding cancer types. Cancer cell lines of interest and control normal lines, including CHO, HEK293, BA/F3, COLO205, PC3, DU145, MCF7, Panc1, ACHN, Hep G2, H460, K562, TT, U87-MG, CAOV-3, SK-MEL5, Karpas 299 and human multiple myeloma cell lines H929, MM1s, MM1r, UTMC2, CPM2, KMS11, My5, KMS12PE, My7, JJN3, KMS18, U266, SKMM2, RPMI-8226 are plated in white, clear-bottomed 384-well cell culture plates at 2500-5000 cells per well and supplied with dilutions of tested compounds After a desired period of time (typically 3 days), the number of viable cells is quantitated by using Cell Titer-Glo Luminescent Cell Viability Assay (Promega), a cell proliferation assay system based on detection of total amount of ATP present as a measure of cell metabolic activity. The plated cells are mixed with the Cell Titer-Glo developing reagent and counted in a luminescence multiwell plate reader according to the standard manufacturer's protocol to generate IC50 curves for cell proliferation inhibition. Results are typically reported as percent of growth (% viability =(OD72h(compound)−ODday0))/(OD72h(no compound)−ODday0). Alternatively, viable cells are quantitated by using the conventional colorimetric MTT assay. The MTT assay is based on the cleavage of the yellow tetrazolium salt MTT to purple formazan crystal by metabolic active cells. The formazan is then solubilized, and the concentration determined by optical density at 570 nm. The cells plated and incubated with a compound as described above are supplemented with the solution of MTT and incubated for 2-3 hours. The growth medium is removed and dimethyl sulfoxide is added into each well to dissolve the formazan. The absorbance is measured on an ELISA plate reader with a test wavelength of 570 nm and a background subtraction wavelength of 630 nm to obtain sample signal (OD570-OD630). […] The results are reported in terms of IC50 value for a particular compound and a cell line in the standard 3-day proliferation assay using Cell Titer-Glo. […] The results are reported in terms of IC50 value for a particular compound and a cell line in the standard 3-day proliferation assay using MTT assay.

Ba/F3 = assay: Cell proliferation inhibition, Cell Titer-Glo, Ba/F3; details: Mus musculus, BaF3; cell proliferation assay, Ba/F3 cells
Summary of the method: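 Ba/F3 cells were seeded at 2500-5000 cells per well in white, clear-bottomed 384-well culture plates and exposed to serial dilutions of test compounds for 3 days. Cell Titer-Glo Luminescent Cell Viability Assay (Promega) reagent, which measures total ATP as an indicator of metabolic activity, was added. Luminescence was read on a multiwell plate reader to derive IC50 values for inhibition of proliferation.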

Karpas-299 = assay: Cell proliferation inhibition, Cell Titer-Glo, Karpas-299; details: Homo sapiens; cell proliferation assay, Karpas-299 cells
Summary of the method: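 Karpas 299 cells were seeded into white, clear-bottomed 384-well culture plates at 2500-5000 cells per well and exposed to serial dilutions of test compounds for about 3 days. Viable cell numbers were then measured with the Cell Titer-Glo Luminescent Cell Viability Assay (Promega), which detects total ATP, and IC50 values for proliferation inhibition were derived.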

[2] = tested on: CHO (chinese hamster ovary); assay: Cell proliferation inhibition, Cell Titer-Glo, CHO; details: Cricetulus griseus; cell proliferation assay, CHO cells
Description: as §1, §2

Compound | IC50 [1] [µM] | IC50 (Ba/F3) [µM] | IC50 (Karpas-299) [µM] | IC50 [2] [µM]
COc1ccc(OC[C@H](O)CNc2cc[nH]c(=O)c2-c2nc3cc4c(cc3[nH]2)C(=O)N(C2CCN(C)CC2)C4=O)c(OC)c1OC [compound 93] | 5 to 15 | > 15 | 5 to 15 | 
Cc1ccc(OC[C@@H](O)CNc2cc[nH]c(=O)c2-c2nc3cc4c(cc3[nH]2)C(=O)N([C@H]2CCN(C)C2)C4=O)c(C)c1 [compound 106] |  | 5 to 15 | > 15 | 
O=C1c2cc3nc(-c4c(NC[C@@H](O)c5cccc(Cl)c5)cc[nH]c4=O)[nH]c3cc2C(=O)N1[C@@H]1CN2CCC1CC2 [compound 33] |  | > 15 | > 15 | 
CN1CCC(N2C(=O)c3cc4nc(-c5c(NC[C@@H](O)COc6cccc(Cl)c6F)cc[nH]c5=O)[nH]c4cc3C2=O)CC1 [compound 96] |  | > 15 | > 15 | 
O=C1c2cc3nc(-c4c(NC[C@@H](O)c5cccc(Cl)c5)cc[nH]c4=O)[nH]c3cc2C(=O)N1C[C@@H]1CCCO1 [compound 29] |  | 5 to 15 | 5 to 15 | 
C[C@H](O)CN1C(=O)c2cc3nc(-c4c(NC[C@@H](O)c5cccc(Cl)c5)cc[nH]c4=O)[nH]c3cc2C1=O [compound 31] | 5 to 15 | > 15 | > 15 | 
CN1CCC(N2C(=O)c3cc4nc(-c5c(N[C@H](CO)Cc6c[nH]cn6)cc[nH]c5=O)[nH]c4cc3C2=O)CC1 [compound 2] |  | > 15 | 5 to 15 | 
CN1CCC(N2C(=O)c3cc4nc(-c5c(NC[C@@H](O)COc6ccc7ccccc7c6)cc[nH]c5=O)[nH]c4cc3C2=O)CC1 [compound 88] |  | 5 to 15 | 5 to 15 | 
Cc1ccc(OC[C@H](O)CNc2cc[nH]c(=O)c2-c2nc3c(C)c4c(cc3[nH]2)C(=O)N(C2CCN(C)CC2)C4)c(C)c1 [compound 139] | > 15 |  |  | > 15
Cc1cc(C)n(C[C@H](O)CNc2cc[nH]c(=O)c2-c2nc3cc4c(cc3[nH]2)C(=O)N(C2CCN(C)CC2)C4=O)n1 [compound 92] |  | > 15 | > 15 | 
Cc1ccc(OC[C@H](O)CNc2cc[nH]c(=O)c2-c2nc3cc4c(cc3[nH]2)C(=O)N(C2CCN(C)CC2)C4=O)cc1Cl [compound 99] |  | > 15 | > 15 | 
Cc1ccc(OCC(O)CNc2cc[nH]c(=O)c2-c2nc3cc4c(cc3[nH]2)C(=O)N(CC2CCN(CCO)CC2)C4=O)c(C)c1 (stereo not drawn) [compound 37] |  | > 15 | > 15 | 
Cc1cc(C)c(OC[C@H](O)CNc2cc[nH]c(=O)c2-c2nc3cc4c(cc3[nH]2)C(=O)N(C2CCN(C)CC2)C4=O)c(CS(C)(=O)=O)c1 [compound 84] |  | > 15 | > 15 | 
Cc1ccc(OC[C@H](O)CNc2cc[nH]c(=O)c2-c2nc3cc4c(cc3[nH]2)CN(C2CCN(C)CC2)C4=O)c(C)c1 [compound 130] | > 15 |  |  | > 15
Cc1ccc(OC[C@H](O)CNc2cc[nH]c(=O)c2-c2nc3cc4c(cc3[nH]2)C(=O)N(C2CCNCC2)C4=O)c(C)c1 [compound 142] | 5 to 15 |  |  | 5 to 15
Cc1ccc(OC[C@@H](O)CNc2cc[nH]c(=O)c2-c2nc3cc4c(cc3[nH]2)C(=O)N([C@@H]2CCN(C)C2)C4=O)c(C)c1 [compound 107] |  | > 15 | > 15 | 
CCN1CCC(N2Cc3cc4nc(-c5c(NC[C@@H](O)COc6ccc(C)cc6C)cc[nH]c5=O)[nH]c4cc3C2=O)CC1 [compound 144] | 5 to 15 |  |  | 5 to 15
CCN1CCC(N2C(=O)c3cc4nc(-c5c(NC[C@@H](O)COc6ccc(C)cc6C)cc[nH]c5=O)[nH]c4cc3C2=O)CC1 [compound 143] | > 15 |  |  | > 15

Compound | IC50 [1] [µM] | IC50 (Ba/F3) [µM] | IC50 (Karpas-299) [µM] | IC50 [2] [µM]
CN1CCC(N2C(=O)c3cc4nc(-c5c(NC[C@@H](O)COc6cccc(-c7ccccc7)c6)cc[nH]c5=O)[nH]c4cc3C2=O)CC1 [compound 89] |  | 5 to 15 | 0.5 to 5 | 
Cc1ccc(OC[C@H](O)CNc2cc[nH]c(=O)c2-c2nc3cc4c(c(C)c3[nH]2)CN(C2CCN(C)CC2)C4=O)c(C)c1 [compound 132] | > 15 |  |  | > 15
CN1CCC(N2C(=O)c3cc4nc(-c5c(NC[C@@H](O)c6cccc(Cl)c6)cc[nH]c5=O)[nH]c4cc3C2=O)CC1 [compound 1] | 5 to 15 |  |  | 
CCc1cc(C)ccc1OC[C@H](O)CNc1cc[nH]c(=O)c1-c1nc2cc3c(cc2[nH]1)CN(C1CCN(C)CC1)C3=O [compound 141] | > 15 |  |  | > 15
O=C1c2cc3nc(-c4c(NC[C@@H](O)c5cccc(Cl)c5)cc[nH]c4=O)[nH]c3cc2C(=O)N1CCc1ccncc1 [compound 28] |  | > 15 | > 15 | 
CN1CCC(N2C(=O)c3cc4nc(-c5c(NC[C@@H](O)COc6cccc7ccccc67)cc[nH]c5=O)[nH]c4cc3C2=O)CC1 [compound 87] |  | > 15 | 5 to 15 | 
Cc1ccc(OC[C@H](O)CNc2cc[nH]c(=O)c2-c2nc3c(C)c4c(cc3[nH]2)C(=O)N(C2CCN(C)CC2)C4=O)c(C)c1 [compound 110] |  | 5 to 15 | 0.5 to 5 | 
O=C1c2cc3nc(-c4c(NC[C@@H](O)c5cccc(Cl)c5)cc[nH]c4=O)[nH]c3cc2C(=O)N1[C@H]1CN2CCC1CC2 [compound 34] |  | > 15 | > 15 | 
Cc1c(Cl)cccc1OC[C@H](O)CNc1cc[nH]c(=O)c1-c1nc2cc3c(cc2[nH]1)C(=O)N(C1CCN(C)CC1)C3=O [compound 94] | > 15 | > 15 | > 15 | 
Cc1ncsc1CCN1C(=O)c2cc3nc(-c4c(NC[C@@H](O)c5cccc(Cl)c5)cc[nH]c4=O)[nH]c3cc2C1=O [compound 32] |  | 0.5 to 5 | > 15 | 
CN1CCC(N2C(=O)c3cc4nc(-c5c(NC[C@@H](O)COc6c(F)ccc(Cl)c6F)cc[nH]c5=O)[nH]c4cc3C2=O)CC1 [compound 95] | 5 to 15 | > 15 | 5 to 15 | 
Cc1ccc(OC[C@@H](O)CNc2cc[nH]c(=O)c2-c2nc3cc4c(cc3[nH]2)C(=O)N(C2CCN(C)CC2)C4=O)c(C)c1 [compound 64] |  | 5 to 15 | > 15 | 
CN1CCC(N2C(=O)c3cc4nc(-c5c(NC[C@@H](O)COc6cccc(C(F)(F)F)c6)cc[nH]c5=O)[nH]c4cc3C2=O)CC1 [compound 97] | > 15 | > 15 | > 15 | 
Cc1cc(C)c(OC[C@H](O)CNc2cc[nH]c(=O)c2-c2nc3cc4c(cc3[nH]2)C(=O)N(C2CCN(C)CC2)C4=O)c(C)c1 [compound 98] |  | > 15 | > 15 | 
CN1CCC(N2C(=O)c3cc4nc(-c5c(NC[C@@H](O)COc6cccc(OC(F)(F)C(F)F)c6)cc[nH]c5=O)[nH]c4cc3C2=O)CC1 [compound 91] |  | > 15 | 5 to 15 | 
Cc1ccc(Cl)c(C)c1OC[C@H](O)CNc1cc[nH]c(=O)c1-c1nc2cc3c(cc2[nH]1)C(=O)N(C1CCN(C)CC1)C3=O [compound 111] |  | 5 to 15 | 0.5 to 5 | 
Cc1ccc(OC[C@H](O)CNc2cc[nH]c(=O)c2-c2nc3cc4c(cc3[nH]2)C(=O)N(C2CCN(C)CC2)C4=O)c(C)c1 [compound 59] | 5 to 15 | 0.5 to 5 | 0.5 to 5 | 
Cc1cc(C)c(OC[C@H](O)CNc2cc[nH]c(=O)c2-c2nc3cc4c(cc3[nH]2)C(=O)N(C2CCN(C)CC2)C4=O)cc1Cl [compound 108] | 5 to 15 | > 15 | 5 to 15 | 

Reference: US8063225B2, “Tricyclic compound derivatives useful in the treatment of neoplastic diseases, inflammatory disorders and immunomodulatory disorders” (Chembridge Corporation, priority 2006, dated 2011)
